In patent US8461170B2, “Chemical compounds” (Astrazeneca AB, priority 2010, dated 2013):
Read-outs that look alike come from different tables or passages of the source.

Molecular target: T1, human ALK (Homo sapiens, UniProt Q9UM73)
T1 construct: GST (N); purchased Invitrogen, Carlsbad, Calif; (or prepared by AstraZeneca); host or cells: insect cells
Test: ALK kinase mobility shift assay (Caliper LC3000)
Type: biochemical
Details: ATP 30 μM (Km) or 5 mM, not specified which
Procedure: ALK kinase activity was determined by measuring the kinase's ability to phosphorylate a tyrosine residue within a peptide substrate using a mobility shift assay on a Caliper LC3000 reader (Caliper Life Sciences, Hopkinton, Mass.), which measures fluorescence of the phosphorylated and unphosphorylated substrate and calculates a ratiometric value to determine percent turnover.
To measure ALK kinase activity, the ALK enzyme used was N-terminal GST-tagged, recombinant, human ALK, amino acids 1058-1620 (Genbank Accession number NP_004295) expressed in insect cells and activated in-vitro via autophosphorylation. This was either purchased from a commercially available source (Invitrogen, Carlsbad, Calif.) or prepared by AstraZeneca. The kinase was incubated with a FAM labeled SRCtide substrate (5FAM-GEEPLYWSFPAKKK-NH2, AnaSpec, Fremont, Calif.), 30 μM adenosine triphosphate (ATP, at Km concentration) or 5 mM ATP, 50 mM HEPES buffer (pH 7.3), 1 mM DTT, 0.01% Tween 20, 50 μg/ml BSA and 10 mM MgCl2 for 90 minutes at room temperature. After this time, the kinase reaction was stopped by adding quenching buffer containing final concentrations of 36 mM ethylenediaminetetraacetic acid (EDTA), 65 mM HEPES buffer (pH 7.3), 0.2% Coatin Reagent 3 (Caliper Life Sciences, Hopkinton, Mass.), and 0.003% Tween 20. The reaction was performed in 384 well microtitre plates and the reaction products were detected using the Caliper LC3000 Reader in the presence of separation buffer consisting of 100 mM HEPES (pH 7.3), 15.8 mM EDTA, 0.1% Coatin Reagent 3 (Caliper, Mass.), 0.015% Brij-35, 5% DMSO, and 5.6 mM MgCl2. The separation conditions set up on the Caliper LC3000 were −1.7 PSI, −400V upstream voltage, −2000V downstream voltage, 0.2 second sample sip, 45 second post sip, and 150 seconds final delay. The percentage of inhibition of ALK enzyme activity by compounds were measured based on Max signals (DMSO control) and Min signals (EDTA control) in the plates. Data was graphed and IC50s calculated by IDBS ActivityBase program.

[1] = geometric means of multiple test runs, as presented in the priority filings, read-out: ALK Enzyme IC50 (μM)*
[2] = cumulative geometric means including test re-runs, some obtained since the priority filings, read-out: ALK Enzyme IC50 (μM)**

T1 sequence (Q9UM73 1058-1620): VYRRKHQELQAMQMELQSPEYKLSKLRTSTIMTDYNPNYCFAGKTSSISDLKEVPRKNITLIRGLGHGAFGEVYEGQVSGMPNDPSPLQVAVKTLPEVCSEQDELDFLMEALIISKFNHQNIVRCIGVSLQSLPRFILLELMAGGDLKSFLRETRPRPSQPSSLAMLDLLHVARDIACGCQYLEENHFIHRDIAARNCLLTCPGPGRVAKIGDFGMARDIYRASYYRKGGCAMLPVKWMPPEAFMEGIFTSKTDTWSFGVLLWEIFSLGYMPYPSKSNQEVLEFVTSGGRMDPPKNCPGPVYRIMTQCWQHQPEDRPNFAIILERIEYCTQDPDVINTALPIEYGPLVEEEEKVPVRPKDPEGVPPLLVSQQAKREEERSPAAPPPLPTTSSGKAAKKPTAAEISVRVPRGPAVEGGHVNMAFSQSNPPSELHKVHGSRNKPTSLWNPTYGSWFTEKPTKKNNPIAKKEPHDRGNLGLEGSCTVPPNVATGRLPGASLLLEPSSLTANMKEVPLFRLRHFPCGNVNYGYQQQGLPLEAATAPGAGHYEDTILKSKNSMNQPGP

| SMILES | IC50 [1] | IC50 [2] |
| --- | --- | --- |
| COc1cc(N2CCC(N3CC[C@@H](F)C3)CC2)c(C)cc1Nc1ncc(Cl)c(-c2c[nH]c3ccccc23)n1 [Example 25, (R)-5-Chloro-N-(4-(4-(3-fluoropyrrolidin-1-yl)piperidin-1-yl)-2-methoxy-5-methylphenyl)-4-(1H-indol-3-yl)pyrimidin-2-amine] | 0.39 µM | – |
| COc1cc(N2CCC(N3CCN(C)CC3)CC2)ccc1Nc1ncc(Br)c(-c2c[nH]c3ccccc23)n1 [Example 27] | 0.033 µM | – |
| COc1cc(N2CCC(N3CCN(C)CC3)CC2)ccc1Nc1ncc(C#N)c(-c2c[nH]c3ccccc23)n1 [Example 28, 4-(1H-Indol-3-yl)-2-(2-methoxy-4-(4-(4-methylpiperazin-1-yl)piperidin-1-yl)phenylamino)pyrimidine-5-carbonitrile] | 0.024 µM | – |
| COc1cc(N2CCC(N3CCN(C)CC3)CC2)ccc1Nc1ncc(Cl)c(-c2cn(C)c3ccccc23)n1 [Example 34, 5-Chloro-N-(2-methoxy-4-(4-(4-methylpiperazin-1-yl)piperidin-1-yl)phenyl)-4-(1-methyl-1H-indol-3-yl)pyrimidin-2-amine] | 0.148 µM | – |
| COc1cc(N2CCC(N)CC2)ccc1Nc1ncc(Cl)c(-c2cn(C)c3ccccc23)n1 [Example 35, N-(4-(4-aminopiperidin-1-yl)-2-methoxyphenyl)-5-chloro-4-(1-methyl-1H-indol-3-yl)pyrimidin-2-amine] | 0.098 µM | – |
| COc1cc(N2CCC(N3CCN(C)CC3)CC2)ccc1Nc1ncc(F)c(-c2cn(C)c3ccccc23)n1 [Example 36, 5-fluoro-N-(2-methoxy-4-(4-(4-methylpiperazin-1-yl)piperidin-1-yl)phenyl)-4-(1-methyl-1H-indol-3-yl)pyrimidin-2-amine] | 1.48 µM | – |

Results, then the molecule that gave them:

| IC50 [1] | IC50 [2] | SMILES |
| --- | --- | --- |
| 0.14 µM | – | COc1cc(N2CCC(N3C[C@@H](C)O[C@@H](C)C3)CC2)ccc1Nc1ncc(Cl)c(-c2c[nH]c3ccccc23)n1 [Example 24, 5-Chloro-N-(4-(4-((2S,6R)-2,6-dimethylmorpholino)piperidin-1-yl)-2-methoxyphenyl)-4-(1H-indol-3-yl)pyrimidin-2-amine] |
| 0.113 µM | – | COc1cc(N2CCC(NC3COC3)CC2)ccc1Nc1ncc(Cl)c(-c2c[nH]c3ccccc23)n1 [Example 26, 5-Chloro-4-(1H-indol-3-yl)-N-(2-methoxy-4-(4-(oxetan-3-ylamino)piperidin-1-yl)phenyl)pyrimidin-2-amine] |
| 0.021 µM | – | COc1cc(N2CCC(N(C)C)CC2)ccc1Nc1ncc(C(F)(F)F)c(-c2c[nH]c3ccccc23)n1 [Example 29, N-(4-(4-(dimethylamino)piperidin-1-yl)-2-methoxyphenyl)-4-(1H-indol-3-yl)-5-(trifluoromethyl)pyrimidin-2-amine] |
| 0.182 µM | 0.151 µM | COc1cc(N2CCC(N)C(C)(C)C2)ccc1Nc1ncc(Cl)c(-c2c[nH]c3ccccc23)n1 (centres unmarked) [Example 30, N-(4-(4-amino-3,3-dimethylpiperidin-1-yl)-2-methoxyphenyl)-5-chloro-4-(1H-indol-3-yl)pyrimidin-2-amine] |
| 0.088 µM | 0.136 µM | CNC1CCN(c2ccc(Nc3ncc(Cl)c(-c4c[nH]c5ccccc45)n3)c(OC)c2)CC1(C)C (centres unmarked) [Example 31, 5-chloro-N-(4-(3,3-dimethyl-4-(methylamino)piperidin-1-yl)-2-methoxyphenyl)-4-(1H-indol-3-yl)pyrimidin-2-amine] |
| 0.343 µM | 0.356 µM | COc1cc(N2CCC(N(C)C)C(C)(C)C2)ccc1Nc1ncc(Cl)c(-c2c[nH]c3ccccc23)n1 (centres unmarked) [Example 32, 5-chloro-N-(4-(4-(dimethylamino)-3,3-dimethylpiperidin-1-yl)-2-methoxyphenyl)-4-(1H-indol-3-yl)pyrimidin-2-amine] |
| 0.025 µM | 0.03 µM | COc1cc(N2CC[C@H](N)[C@H](F)C2)ccc1Nc1ncc(Cl)c(-c2c[nH]c3ccccc23)n1 [Example 33, N-(4-((3R,4S)-4-amino-3-fluoropiperidin-1-yl)-2-methoxyphenyl)-5-chloro-4-(1H-indol-3-yl)pyrimidin-2-amine] |
